Laboratory results reported in patent US10214531B2 (Institute for Drug Discovery, LLC, priority 2013, dated 2019).
Structures can show the parent of a compound that is named as a salt.

Biological target: recombinant human AMCase (Homo sapiens, UniProt Q9BZP6)
Test: Human AMCase Activity Assay
Assay type: biochemical
Conditions: recombinant hAMCase, 4-methylumbelliferyl chitobioside substrate, citrate buffer pH 5.2, 37° C., 60 minutes; read-out: Activity (IC50 value key)
How it was run: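 Recombinant human enzyme with fluorogenic 4-methylumbelliferyl β-D-N,N′-diacetylchitobioside substrate in citrate buffer, pH 5.2, 60 min at 37 °C in the dark with shaking. Read-out is 4MU fluorescence at 460 nm.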

recombinant human AMCase, sequence (Q9BZP6 22-476): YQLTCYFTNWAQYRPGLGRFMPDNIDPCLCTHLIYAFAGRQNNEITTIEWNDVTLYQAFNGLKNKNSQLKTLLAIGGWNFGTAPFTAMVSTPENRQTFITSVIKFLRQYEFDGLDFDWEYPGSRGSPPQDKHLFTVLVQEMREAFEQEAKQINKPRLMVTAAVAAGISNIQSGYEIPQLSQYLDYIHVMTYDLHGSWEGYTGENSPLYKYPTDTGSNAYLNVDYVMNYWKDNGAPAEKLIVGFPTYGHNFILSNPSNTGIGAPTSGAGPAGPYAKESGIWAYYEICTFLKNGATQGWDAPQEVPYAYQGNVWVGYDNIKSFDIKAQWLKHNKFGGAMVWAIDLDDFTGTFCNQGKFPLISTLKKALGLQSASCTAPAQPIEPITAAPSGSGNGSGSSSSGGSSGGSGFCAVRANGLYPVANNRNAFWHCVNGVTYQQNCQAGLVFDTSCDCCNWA

| SMILES | IC50 [µM] |
| --- | --- |
| Nc1n[nH]c(N2CCC(N(CCc3ccc(Cl)cc3)Cc3ccccc3F)CC2)n1 [Example 137, 1-(3-amino-1H-1,2,4-triazol-5-yl)-N-(4-chlorophenethyl)-N-(2-fluorobenzyl)piperidin-4-amine dihydrochloride] | < 0.1 |
| C[C@H](Cc1ccc(Cl)cc1)N(C)C1CCN(c2nc(N)n[nH]2)CC1 [Example 139, (R)-1-(3-amino-1H-1,2,4-triazol-5-yl)-N-(1-(4-chlorophenyl)propan-2-yl)-N-methylpiperidin-4-amine dihydrochloride] | 1 to 10 |
| CC(CN(C)C1CCN(c2nc(N)n[nH]2)CC1)c1ccc(Cl)cc1 (centres unmarked) [Example 140, 1-(3-amino-1H-1,2,4-triazol-5-yl)-N-(2-(4-chlorophenyl)propyl)-N-methylpiperidin-4-amine dihydrochloride] | 10 to 100 |
| CC(Cc1ccc(Cl)cc1)N(C)C1CCN(c2nc(N)n[nH]2)CC1 (centres unmarked) [Example 141, 1-(3-amino-1H-1,2,4-triazol-5-yl)-N-(1-(4-chlorophenyl)propan-2-yl)-N-methylpiperidin-4-amine dihydrochloride] | 0.1 to 1 |
| N#Cc1ccc(CN(CCc2ccc(Cl)cc2)C2CCN(c3nc(N)n[nH]3)CC2)cc1 [Example 142, 4-(((1-(3-amino-1H-1,2,4-triazol-5-yl)piperidin-4-yl)(4-chlorophenethyl)amino)methyl)benzonitrile] | < 0.1 |
| Nc1n[nH]c(N2CCC(N(CCc3ccc(Cl)cc3)Cc3ccc(F)c4ccccc34)CC2)n1 [Example 144, 1-(3-amino-1H-1,2,4-triazol-5-yl)-N-(4-chlorophenethyl)-N-((4-fluoronaphthalen-1-yl)methyl)piperidin-4-amine] | < 0.1 |
| Nc1nc(N2CCC(N(CCc3ccc(Cl)cc3)Cc3ccc(F)cc3Cl)CC2)n[nH]1 [Example 145, 1-(3-amino-1H-1,2,4-triazol-5-yl)-N-(2-chloro-4-fluorobenzyl)-N-(4-chlorophenethyl)piperidin-4-amine] | < 0.1 |
| Nc1n[nH]c(N2CCC(N(CCc3ccc(Br)cc3)Cc3ccccc3)CC2)n1 [Example 146, 1-(3-amino-1H-1,2,4-triazol-5-yl)-N-benzyl-N-(4-bromophenethyl)piperidin-4-amine] | < 0.1 |
| CC(CNC1CCN(c2nc(N)n[nH]2)CC1)c1ccc(Cl)cc1 (centres unmarked) [Example 147, 1-(3-amino-1H-1,2,4-triazol-5-yl)-N-(2-(4-chlorophenyl)propyl)piperidin-4-aminedihydrochloride] | 10 to 100 |
| CN(Cc1ccc(Cl)cc1)C1CCN(c2nc(N)n[nH]2)CC1 [Example 148, 1-(3-amino-1H-1,2,4-triazol-5-yl)-N-(4-chlorobenzyl)-N-methylpiperidin-4-amine dihydrochloride] | > 100 |
| CN(CCc1ccc(Cl)cc1)C1CCN(c2nc(N)n[nH]2)CC1F (centres unmarked) [Example 150, 1-(3-amino-1H-1,2,4-triazol-5-yl)-N-(4-chlorophenethyl)-3-fluoro-N-methylpiperidin-4-amine] | 1 to 10 |
| CC(Cc1ccc(Cl)cc1)NC1CCN(c2nc(N)n[nH]2)CC1 (centres unmarked) [Example 151, 1-(3-amino-1H-1,2,4-triazol-5-yl)-N-(1-(4-chlorophenyl)propan-2-yl)piperidin-4-amine dihydrochloride] | 1 to 10 |
| COc1ccc(CN(CCc2ccc(Cl)cc2)C2CCN(c3nc(N)n[nH]3)CC2)cc1 [Example 152, 1-(3-amino-1H-1,2,4-triazol-5-yl)-N-(4-chlorophenethyl)-N-(4-methoxybenzyl)piperidin-4-amine] | < 0.1 |
| CN(C1CCN(c2nc(N)n[nH]2)CC1)[C@H](CO)Cc1ccc(Cl)cc1 [Example 153, (S)-2-((1-(3-amino-1H-1,2,4-triazol-5-yl)piperidin-4-yl)(methyl)amino)-3-(4-chlorophenyl)propan-1-ol] | 0.1 to 1 |
| CC1CN(c2nc(N)n[nH]2)CCC1N(C)CCc1ccc(Cl)cc1 (centres unmarked) [Example 154, 1-(3-amino-1H-1,2,4-triazol-5-yl)-N-(4-chlorophenethyl)-N,3-dimethylpiperidin-4-amine dihydrochloride] | 0.1 to 1 |
| Nc1nc(N2CCC(N(CCc3ccc(Cl)cc3)Cc3cccc(C(F)(F)F)c3)CC2)n[nH]1 [Example 156, 1-(3-amino-1H-1,2,4-triazol-5-yl)-N-(4-chlorophenethyl)-N-(3-(trifluoromethyl)benzyl)piperidin-4-amine] | < 0.1 |
| CN(CCc1ccccn1)C1CCN(c2nc(N)n[nH]2)CC1 [Example 157, 1-(3-amino-1H-1,2,4-triazol-5-yl)-N-methyl-N-(2-(pyridin-2-yl)ethyl)piperidin-4-amine trihydrochloride] | 10 to 100 |
| CC(Cc1ccc(Cl)cc1)N(Cc1ccccc1)C1CCN(c2nc(N)n[nH]2)CC1 (centres unmarked) [Example 159, 1-(3-amino-1H-1,2,4-triazol-5-yl)-N-benzyl-N-(1-(4-chlorophenyl)propan-2-yl)piperidin-4-amine dihydrochloride] | < 0.1 |
| CCC(Cc1ccc(Cl)cc1)N(C)C1CCN(c2nc(N)n[nH]2)CC1 (centres unmarked) [Example 160, 1-(3-amino-1H-1,2,4-triazol-5-yl)-N-(1-(4-chlorophenyl)butan-2-yl)-N-methylpiperidin-4-amine] | 1 to 10 |

| SMILES | IC50 [µM] |
| --- | --- |
| Cc1cccc(Cl)c1CN(CCc1ccc(Cl)cc1)C1CCN(c2nc(N)n[nH]2)CC1 [Example 161, 1-(3-amino-1H-1,2,4-triazol-5-yI)-N-(2-chloro-6-methylbenzyl)-N-(4-chlorophenethyl)piperidin-4-amine] | < 0.1 |
| Nc1n[nH]c(N2CCC(N(CCc3ccc(Cl)cc3)CCc3ccc(Cl)cc3)CC2)n1 [Example 162, 1-(3-amino-1H-1,2,4-triazol-5-yl)-N,N-bis(4-chlorophenethyl)piperidin-4-amine] | < 0.1 |
| Nc1n[nH]c(N2CCC(N(CCc3ccc(Cl)cc3)Cc3ccc(Cl)cc3Cl)CC2)n1 [Example 163, 1-(3-amino-1H-1,2,4-triazol-5-yl)-N-(4-chlorophenethyl)-N-(2,4-dichlorobenzyl)piperidin-4-amine] | < 0.1 |
| Nc1n[nH]c(N2CCC(N(CCc3ccc(Cl)cc3)Cc3ccccc3CO)CC2)n1 [Example 164, (2-(((1-(3-amino-1H-1,2,4-triazol-5-yl)piperidin-4-yl)(4-chlorophenethyl)amino)methyl)phenyl)methanol dihydrochloride] | < 0.1 |
| CN(CCc1ccc(Br)cc1)C1CCN(c2nc(N)n(C)n2)CC1 [Example 166, 1-(5-amino-1-methyl-1H-1,2,4-triazol-3-yl)-N-(4-bromophenethyl)-N-methylpiperidin-4-amine] | > 100 |
| Nc1n[nH]c(N2CCC(N(CCc3ccc(Br)cc3)Cc3ccc(F)c4ccccc34)CC2)n1 [Example 167, 1-(3-amino-1H-1,2,4-triazol-5-yl)-N-(4-bromophenethyl)-N-((4-fluoronaphthalen-1-yl)methyl)piperidin-4-amine] | < 0.1 |
| Nc1n[nH]c(N2CCC(N(CCc3ccc(Br)cc3)Cc3cccc4cnccc34)CC2)n1 [Example 168, 1-(3-amino-1H-1,2,4-triazol-5-yl)-N-(4-bromophenethyl)-N-(isoquinolin-5-ylmethyl)piperidin-4-amine] | < 0.1 |
| CN(CCc1ccccc1C(F)(F)F)C1CCN(c2nc(N)n[nH]2)CC1 [Example 169, 1-(3-amino-1H-1,2,4-triazol-5-yl)-N-methyl-N-(2-(trifluoromethyl)phenethyl)piperidin-4-amine] | 1 to 10 |
| CN(CCc1ccc2c(c1)OCO2)C1CCN(c2nc(N)n[nH]2)CC1 [Example 170, 1-(3-amino-1H-1,2,4-triazol-5-yl)-N-(2-(benzo[d][1,3]dioxol-5-yl)ethyl)-N-methylpiperidin-4-amine] | 1 to 10 |
| COc1ccccc1CCN(C)C1CCN(c2nc(N)n[nH]2)CC1 [Example 172, 1-(3-amino-1H-1,2,4-triazol-5-yl)-N-(2-methoxyphenethyl)-N-methylpiperidin-4-amine] | 10 to 100 |
| COc1ccc(CCN(C)C2CCN(c3nc(N)n[nH]3)CC2)cc1OC [Example 173, 1-(3-amino-1H-1,2,4-triazol-5-yl)-N-(3,4-dimethoxyphenethyl)-N-methylpiperidin-4-amine] | 10 to 100 |
| CN(CCc1ccccc1OC(F)(F)F)C1CCN(c2nc(N)n[nH]2)CC1 [Example 174, 1-(3-amino-1H-1,2,4-triazol-5-yl)-N-methyl-N-(2-(trifluoromethoxy)phenethyl)piperidin-4-amine] | 10 to 100 |
| CN(CCc1ccc(Cl)c(Cl)c1)C1CCN(c2nc(N)n[nH]2)CC1 [Example 176, 1-(3-amino-1H-1,2,4-triazol-5-yl)-N-(3,4-dichlorophenethyl)-N-methylpiperidin-4-amine] | 1 to 10 |
| COc1cccc(CCN(C)C2CCN(c3nc(N)n[nH]3)CC2)c1OC [Example 177, 1-(3-amino-1H-1,2,4-triazol-5-yl)-N-(2,3-dimethoxyphenethyl)-N-methylpiperidin-4-amine] | 10 to 100 |
| CN(C)c1ccc(CCN(C)C2CCN(c3nc(N)n[nH]3)CC2)cc1 [Example 178, 1-(3-amino-1H-1,2,4-triazol-5-yl)-N-(4-(dimethylamino)phenethyl)-N-methylpiperidin-4-amine] | 10 to 100 |
| Cc1ccccc1CCN(C)C1CCN(c2nc(N)n[nH]2)CC1 [Example 179, 1-(3-amino-1H-1,2,4-triazol-5-yl)-N-methyl-N-(2-methylphenethyl)piperidin-4-amine] | 10 to 100 |
| CN(CCc1cccc(C(F)(F)F)c1)C1CCN(c2nc(N)n[nH]2)CC1 [Example 180, 1-(3-amino-1H-1,2,4-triazol-5-yl)-N-methyl-N-(3-(trifluoromethyl)phenethyl)piperidin-4-amine] | 0.1 to 1 |
| COc1ccc(OC)c(CCN(C)C2CCN(c3nc(N)n[nH]3)CC2)c1 [Example 182, 1-(3-amino-1H-1,2,4-triazol-5-yl)-N-(2,5-dimethoxyphenethyl)-N-methylpiperidin-4-amine] | 10 to 100 |
| CN(CCc1ccc(F)cc1)C1CCN(c2nc(N)n[nH]2)CC1 [Example 183, 1-(3-amino-1H-1,2,4-triazol-5-yl)-N-(4-fluorophenethyl)-N-methylpiperidin-4-amine] | 1 to 10 |
